Holding throughout (assay): Broad selectivity panel, 32P incorporation
What all share (type): biochemical

One assay has as its target T1, FGFR3 (Homo sapiens, UniProt P22607).
T1 construct: purchased Upstate (Charlottesville, Va.)
The settings on record: 40 μM ATP, read-out: Percent inhibition FGFR3. An outline of the steps:
(§1)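 Each panel kinase reacted with its substrate at 40 μM ATP, either with compound (0.1 or 1 μM) or with buffer alone. Radiolabel uptake was then quantified, and the loss relative to control reported as a percentage.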

In a further assay the target is T2, CK2 (Homo sapiens, UniProt P68400).
T2 construct: purchased Upstate (Charlottesville, Va.)
T2 sequence (P68400 whole entry): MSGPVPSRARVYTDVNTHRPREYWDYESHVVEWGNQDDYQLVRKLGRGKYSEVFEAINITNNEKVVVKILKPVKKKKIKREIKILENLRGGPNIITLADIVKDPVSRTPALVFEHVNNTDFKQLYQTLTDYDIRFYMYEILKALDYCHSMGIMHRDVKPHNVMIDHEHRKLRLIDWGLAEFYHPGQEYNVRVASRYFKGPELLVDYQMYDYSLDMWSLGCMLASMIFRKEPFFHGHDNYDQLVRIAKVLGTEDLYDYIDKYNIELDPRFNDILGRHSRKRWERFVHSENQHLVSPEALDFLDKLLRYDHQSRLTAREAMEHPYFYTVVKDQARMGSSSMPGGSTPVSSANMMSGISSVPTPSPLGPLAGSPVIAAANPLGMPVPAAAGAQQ
T2 sequence (P67870 whole entry partner): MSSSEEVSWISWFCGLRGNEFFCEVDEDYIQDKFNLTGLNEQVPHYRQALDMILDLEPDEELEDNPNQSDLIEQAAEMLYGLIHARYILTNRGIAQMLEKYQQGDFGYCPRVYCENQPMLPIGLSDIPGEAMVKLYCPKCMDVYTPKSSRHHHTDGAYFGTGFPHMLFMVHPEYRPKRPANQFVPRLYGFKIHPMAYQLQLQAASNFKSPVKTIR
The settings on record: 40 μM ATP, read-out: Percent inhibition CK2. The essentials: as §1

The target of a further assay is T3, MAPK1 (Homo sapiens, UniProt P27361).
T3 construct: purchased Upstate (Charlottesville, Va.)
T3 sequence (P27361 whole entry): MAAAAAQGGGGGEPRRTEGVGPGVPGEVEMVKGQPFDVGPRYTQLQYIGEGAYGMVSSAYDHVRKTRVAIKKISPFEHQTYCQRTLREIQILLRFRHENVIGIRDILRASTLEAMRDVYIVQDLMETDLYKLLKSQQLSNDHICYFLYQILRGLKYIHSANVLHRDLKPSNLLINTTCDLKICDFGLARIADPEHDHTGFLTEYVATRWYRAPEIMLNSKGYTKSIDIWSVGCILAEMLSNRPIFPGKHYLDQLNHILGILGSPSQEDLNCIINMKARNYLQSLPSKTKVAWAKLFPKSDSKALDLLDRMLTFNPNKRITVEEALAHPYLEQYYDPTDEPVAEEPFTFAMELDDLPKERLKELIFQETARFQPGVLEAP
The settings on record: 40 μM ATP, read-out: Percent inhibition MAPK1. An outline of the steps: as §1

For a further assay, the target named is T4, c-RAF (Homo sapiens, UniProt P04049).
T4 construct: purchased Upstate (Charlottesville, Va.)
T4 sequence (P04049 whole entry, species assumed): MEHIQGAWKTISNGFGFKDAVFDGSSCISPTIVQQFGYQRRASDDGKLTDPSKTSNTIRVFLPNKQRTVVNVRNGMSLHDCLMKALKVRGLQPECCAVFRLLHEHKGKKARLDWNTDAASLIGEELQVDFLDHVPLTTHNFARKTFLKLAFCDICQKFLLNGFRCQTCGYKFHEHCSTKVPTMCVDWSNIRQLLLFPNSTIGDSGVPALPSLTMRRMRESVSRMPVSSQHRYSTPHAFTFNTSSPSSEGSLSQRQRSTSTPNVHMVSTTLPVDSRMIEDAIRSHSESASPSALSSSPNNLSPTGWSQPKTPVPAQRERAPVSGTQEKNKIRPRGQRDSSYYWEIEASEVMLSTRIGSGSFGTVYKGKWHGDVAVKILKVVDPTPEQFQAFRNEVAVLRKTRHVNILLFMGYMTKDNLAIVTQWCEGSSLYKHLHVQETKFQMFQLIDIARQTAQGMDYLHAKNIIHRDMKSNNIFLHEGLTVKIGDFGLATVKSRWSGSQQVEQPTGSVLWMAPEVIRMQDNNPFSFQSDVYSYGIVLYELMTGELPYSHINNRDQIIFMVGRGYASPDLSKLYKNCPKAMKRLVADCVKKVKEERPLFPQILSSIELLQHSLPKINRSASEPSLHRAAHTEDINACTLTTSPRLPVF
The settings on record: 40 μM ATP, read-out: Percent inhibition c-RAF. An outline of the steps:
as §1

The next assay has as its target T5, PKBβ (Homo sapiens, UniProt P31751).
T5 construct: purchased Upstate (Charlottesville, Va.)
The settings on record: 40 μM ATP, read-out: Percent inhibition PKBβ. An outline of the steps:
as §1

The subject of the next assay is ROCK-II. The settings on record: 40 μM ATP. The essentials:
as §1

The subject of the next assay is p70S6K. The settings on record: 40 μM ATP. An outline of the steps:
as §1

For another assay, the target named is T6, MAPK2 (Homo sapiens, UniProt P28482).
T6 construct: purchased Upstate (Charlottesville, Va.)
T6 sequence (P28482 whole entry): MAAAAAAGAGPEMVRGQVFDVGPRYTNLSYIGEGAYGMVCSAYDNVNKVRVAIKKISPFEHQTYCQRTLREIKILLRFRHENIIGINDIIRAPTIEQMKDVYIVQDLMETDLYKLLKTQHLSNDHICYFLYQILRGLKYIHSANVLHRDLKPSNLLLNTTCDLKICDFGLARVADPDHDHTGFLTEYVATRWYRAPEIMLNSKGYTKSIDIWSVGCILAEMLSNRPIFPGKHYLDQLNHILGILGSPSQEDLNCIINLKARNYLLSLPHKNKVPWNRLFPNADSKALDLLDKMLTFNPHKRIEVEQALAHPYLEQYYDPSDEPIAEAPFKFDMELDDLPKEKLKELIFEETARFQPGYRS
The settings on record: 40 μM ATP, read-out: Percent inhibition MAPK2. An outline of the steps: as §1

The target in another assay is T7, SAPK4 (Homo sapiens, UniProt O15264).
T7 construct: purchased Upstate (Charlottesville, Va.)
T7 sequence (O15264 1-365): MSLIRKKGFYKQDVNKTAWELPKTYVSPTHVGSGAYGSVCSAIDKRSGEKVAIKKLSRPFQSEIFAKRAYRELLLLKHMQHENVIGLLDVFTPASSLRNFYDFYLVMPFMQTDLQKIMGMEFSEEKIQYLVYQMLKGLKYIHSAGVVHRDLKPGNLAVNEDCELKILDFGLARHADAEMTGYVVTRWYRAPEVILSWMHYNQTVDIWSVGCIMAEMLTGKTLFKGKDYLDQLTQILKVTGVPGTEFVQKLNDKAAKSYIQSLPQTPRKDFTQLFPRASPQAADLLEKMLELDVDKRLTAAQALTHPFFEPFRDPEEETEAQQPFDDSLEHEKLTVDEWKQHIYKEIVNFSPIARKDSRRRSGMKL
The settings on record: 40 μM ATP, read-out: Percent inhibition SAPK4. The essentials:
as §1

The target in a further assay is T8, Syk (Homo sapiens, UniProt P43405).
T8 construct: purchased Upstate (Charlottesville, Va.)
The following applies: 40 μM ATP, read-out: Percent inhibition Syk. Here is the method:
(§2) Various compounds of the present invention are screened against a panel of 24 additional kinases (Upstate, Charlottesville, Va.). Compounds are tested 0.1 μM and 1 μM in reactions containing 40 μM ATP. Incorporation of radiolabeled phosphate (^32P) into each kinase substrate is measured in the presence and absence of test compound.

A further assay concerns the target T9, InsR (Homo sapiens, UniProt P06213).
T9 construct: purchased Upstate (Charlottesville, Va.)
The following applies: 40 μM ATP, read-out: Percent inhibition InsR. The procedure:
as §2

In another assay the target is T10, Lck (Homo sapiens, UniProt P06239).
T10 construct: purchased Upstate (Charlottesville, Va.)
T10 sequence (P06239 whole entry, species assumed): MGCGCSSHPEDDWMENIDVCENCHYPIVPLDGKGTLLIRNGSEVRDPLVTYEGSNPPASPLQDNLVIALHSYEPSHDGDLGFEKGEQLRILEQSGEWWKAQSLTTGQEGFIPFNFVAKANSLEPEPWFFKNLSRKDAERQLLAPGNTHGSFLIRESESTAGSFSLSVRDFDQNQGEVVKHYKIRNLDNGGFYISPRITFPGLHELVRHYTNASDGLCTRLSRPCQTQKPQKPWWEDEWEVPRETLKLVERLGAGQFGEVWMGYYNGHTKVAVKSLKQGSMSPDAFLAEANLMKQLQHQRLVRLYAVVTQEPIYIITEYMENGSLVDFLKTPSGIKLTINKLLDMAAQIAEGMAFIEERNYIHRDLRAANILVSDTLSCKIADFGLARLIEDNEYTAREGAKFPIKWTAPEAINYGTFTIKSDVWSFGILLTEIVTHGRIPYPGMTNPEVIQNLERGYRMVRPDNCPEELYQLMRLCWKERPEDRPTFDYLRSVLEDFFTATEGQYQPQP
The following applies: 40 μM ATP, read-out: Percent inhibition Lck. Here is the method:
as §2

T9 sequence (P06213 28-1382, species assumed): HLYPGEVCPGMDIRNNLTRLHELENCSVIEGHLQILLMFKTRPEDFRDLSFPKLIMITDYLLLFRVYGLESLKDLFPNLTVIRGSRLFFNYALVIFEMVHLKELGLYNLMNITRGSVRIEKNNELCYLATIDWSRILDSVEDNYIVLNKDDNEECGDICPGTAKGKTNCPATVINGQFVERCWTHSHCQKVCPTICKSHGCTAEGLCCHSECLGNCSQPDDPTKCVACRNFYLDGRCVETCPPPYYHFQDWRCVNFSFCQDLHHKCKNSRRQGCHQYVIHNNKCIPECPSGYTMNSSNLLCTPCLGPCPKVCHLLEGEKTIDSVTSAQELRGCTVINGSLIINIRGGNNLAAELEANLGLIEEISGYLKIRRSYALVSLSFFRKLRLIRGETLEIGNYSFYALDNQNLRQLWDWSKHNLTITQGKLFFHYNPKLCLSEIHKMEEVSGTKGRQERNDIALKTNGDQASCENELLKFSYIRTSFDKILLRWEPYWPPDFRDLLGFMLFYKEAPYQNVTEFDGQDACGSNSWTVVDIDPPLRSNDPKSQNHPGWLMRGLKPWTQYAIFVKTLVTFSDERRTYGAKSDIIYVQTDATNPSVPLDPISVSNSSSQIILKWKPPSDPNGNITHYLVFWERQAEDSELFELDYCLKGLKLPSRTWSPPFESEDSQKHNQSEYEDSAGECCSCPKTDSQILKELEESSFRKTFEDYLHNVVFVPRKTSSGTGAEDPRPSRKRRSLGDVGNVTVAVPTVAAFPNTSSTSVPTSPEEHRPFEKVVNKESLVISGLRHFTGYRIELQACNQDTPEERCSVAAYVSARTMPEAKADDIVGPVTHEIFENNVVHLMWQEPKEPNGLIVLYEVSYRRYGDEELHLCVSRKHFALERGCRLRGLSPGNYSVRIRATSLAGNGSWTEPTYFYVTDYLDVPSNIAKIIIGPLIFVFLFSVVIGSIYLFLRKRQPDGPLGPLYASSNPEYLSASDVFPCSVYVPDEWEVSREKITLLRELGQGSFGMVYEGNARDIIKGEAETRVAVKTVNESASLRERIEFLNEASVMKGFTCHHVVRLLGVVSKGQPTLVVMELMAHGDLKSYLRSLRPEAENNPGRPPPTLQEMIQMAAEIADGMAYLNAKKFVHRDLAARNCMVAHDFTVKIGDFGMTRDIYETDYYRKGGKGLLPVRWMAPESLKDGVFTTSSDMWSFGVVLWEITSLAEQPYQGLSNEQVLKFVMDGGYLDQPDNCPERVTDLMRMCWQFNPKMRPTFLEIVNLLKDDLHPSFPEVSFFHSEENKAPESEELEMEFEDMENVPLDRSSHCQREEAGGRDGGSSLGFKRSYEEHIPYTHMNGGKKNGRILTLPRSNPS
T1 sequence (P22607 23-806, species assumed): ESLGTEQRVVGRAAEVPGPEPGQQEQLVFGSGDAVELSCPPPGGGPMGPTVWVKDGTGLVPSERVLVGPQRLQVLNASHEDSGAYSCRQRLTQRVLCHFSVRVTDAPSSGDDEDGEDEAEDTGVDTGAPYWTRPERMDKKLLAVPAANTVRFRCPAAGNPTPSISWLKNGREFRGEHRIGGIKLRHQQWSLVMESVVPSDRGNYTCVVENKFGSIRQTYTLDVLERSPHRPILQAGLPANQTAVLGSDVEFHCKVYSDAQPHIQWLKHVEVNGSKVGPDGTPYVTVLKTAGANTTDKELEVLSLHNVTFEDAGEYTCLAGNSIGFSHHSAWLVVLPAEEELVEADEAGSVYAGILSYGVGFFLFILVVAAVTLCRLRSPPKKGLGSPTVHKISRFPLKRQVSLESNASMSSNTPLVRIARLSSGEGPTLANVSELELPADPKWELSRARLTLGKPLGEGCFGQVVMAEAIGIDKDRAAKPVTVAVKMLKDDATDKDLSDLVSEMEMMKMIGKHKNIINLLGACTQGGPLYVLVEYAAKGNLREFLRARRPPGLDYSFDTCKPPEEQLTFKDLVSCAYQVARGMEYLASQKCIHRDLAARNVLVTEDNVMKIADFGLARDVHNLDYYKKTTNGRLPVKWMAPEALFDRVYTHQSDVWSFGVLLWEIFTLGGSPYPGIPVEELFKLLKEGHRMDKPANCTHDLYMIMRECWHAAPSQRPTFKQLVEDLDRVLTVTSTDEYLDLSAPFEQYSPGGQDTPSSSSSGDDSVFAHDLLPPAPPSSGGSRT

As for `Fc1ccc(-c2nc3occn3c2-c2ccnc(N[C@H]3CN4CCC3CC4)n2)cc1` [LXXXVII], the inhibition (in general, the change of the read-out against control, counted positive when it falls) at 0.1 µM at FGFR3 (0.1 μM compound) is -23%; on CK2 (0.1 μM compound) it was 4%; on MAPK1 (0.1 μM compound) it was 12%; on c-RAF (0.1 μM compound), 15%; at PKBβ (0.1 μM compound), -26%; at MAPK2 (0.1 μM compound), -4%. Besides, the inhibition at 0.1 µM on SAPK4 (0.1 μM compound) is -3%; on Syk (0.1 μM compound), 17%; on InsR (0.1 μM compound) it was -8%; at Lck (0.1 μM compound), -15%. Besides, the inhibition at 1 µM at FGFR3 (1 μM compound) is -21%; at CK2 (1 μM compound) it was 4%; at MAPK1 (1 μM compound), 27%; on c-RAF (1 μM compound) it was 58%; on PKBβ (1 μM compound) it was -29%; on MAPK2 (1 μM compound) it was 14%. The inhibition at 1 µM on SAPK4 (1 μM compound) was -1%; on Syk (1 μM compound), 23%; on InsR (1 μM compound), 8%; at Lck (1 μM compound) it was 18%. The figures for the “Percent inhibition ROCK-II” value with ROCK-II (0.1 μM compound) and in the assay with ROCK-II (1 μM compound) were 2 and 8, respectively. For the same compound, the “Percent inhibition p70S6K” value with p70S6K (0.1 μM compound) is recorded as −4; with p70S6K (1 μM compound), −1.

The values above are taken from US20070270418A1, “Inhibitors of P38 and Methods of Using the Same” (priority 2003, published 2007).
